# Laboratory results reported in PubChem BioAssay AID977613 (Broad Institute, 2014).
# Activity calls are given as the source filed them. No rule for the calls is given here.
# Test system: Broad 7084-01 inhibitor HTS, set 2
# Test: single-concentration hits, screen 7084 set 2 (AID 977613);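 also: host cells are infected with parasite promastigotes that become internalized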
row,Structure (SMILES),active concentration
1,C[C@H](NC(=O)[C@H]1[C@H](CO)[C@H]2Cn3c(ccc(/C=C/c4ccccc4)c3=O)[C@@H]1N2)c1ccccc1,> 10 µM (inactive)
2,O=C(C[C@@H]1CC[C@H]2[C@@H](COC[C@@H](O)CN2C(=O)Nc2ccc(Cl)cc2)O1)NCC1CC1,> 10 µM (inactive)
3,O=C(C[C@@H]1CC[C@@H]2[C@H](COC[C@H](O)CN2Cc2ccccc2)O1)NCCc1ccccc1,> 10 µM (inactive)
4,CN1C(=O)c2cc(NC(=O)c3ccccc3Cl)ccc2OC[C@H]2O[C@H](CC(=O)NCC(F)(F)F)CC[C@H]21,> 10 µM (inactive)
5,O=C(CN1CCOCC1)N1CC(=O)N2[C@H](CO)[C@@H](c3ccc(-c4cccc(F)c4)cc3)[C@@H]2C1,> 10 µM (inactive)
6,COC(=O)[C@@H]1[C@@H](CO)[C@@H]2Cn3c(cccc3=O)[C@H]1N2Cc1nccs1,> 10 µM (inactive)
7,C/C=C/c1ccc([C@@H]2[C@H](CO)N3CCCCN(S(=O)(=O)c4ccc(OC)cc4)C[C@@H]23)cc1,> 10 µM (inactive)
8,C/C=C/c1ccc([C@@H]2[C@@H](CO)N3C(=O)CN(Cc4ccc(F)cc4)C[C@@H]23)cc1,> 10 µM (inactive)
9,O=C(C1CCOCC1)N1C[C@H]2[C@@H](c3ccccc31)[C@H](CO)N2C(=O)Cc1ccccc1,> 10 µM (inactive)
10,C/C=C/c1ccc([C@@H]2[C@H](CO)N(S(=O)(=O)CC)C23CN(C(C)=O)C3)cc1,> 10 µM (inactive)
11,CCCC#Cc1ccc([C@H]2[C@H](CO)N3C(=O)CN(C(=O)c4cccnc4)C[C@@H]23)cc1,> 10 µM (inactive)
12,CCN1[C@@H]2c3ccc(-c4ccccc4F)c(=O)n3C[C@H]1[C@H](CO)[C@H]2C(=O)NCc1ccc(F)cc1,> 10 µM (inactive)
13,O=C(C[C@H]1CC[C@H]2[C@@H](COC[C@H](O)CN2C(=O)C2CC2)O1)NCc1ccncc1,> 10 µM (inactive)
14,CN1C(=O)c2cc(NC(=O)Nc3ccccc3Cl)ccc2OC[C@H]2O[C@@H](CC(=O)NCCCN3CCOCC3)CC[C@@H]21,> 10 µM (inactive)
15,Cn1cnc(CCNC(=O)C[C@H]2CC[C@H]3[C@@H](COC[C@H](O)CN3C(=O)C3CC3)O2)c1,> 10 µM (inactive)
16,O=C(Nc1ccc(F)cc1)N1CC(=O)N2[C@H](CO)[C@H](c3ccc(C#Cc4cccnc4)cc3)[C@H]2C1,> 10 µM (inactive)
17,CCC(=O)N1[C@@H]2Cn3c(ccc(-c4ccc(F)cc4)c3=O)[C@H]1[C@@H](C(=O)OC)[C@@H]2CO,> 10 µM (inactive)
18,O=C(Cc1ccccc1)N1CC[C@@H]2[C@H](CO)Nc3ccc(C4=CCCCC4)cc3[C@@H]21,> 10 µM (inactive)

row,Structure (SMILES),active concentration
1,Cc1ccc(S(=O)(=O)N2CC[C@H]3[C@H](CO)Nc4ccc(C#Cc5ccc(F)cc5)cc4[C@H]32)cc1,> 10 µM (inactive)
2,CCS(=O)(=O)Nc1ccc2c(c1)C(=O)N(C)[C@@H]1CC[C@H](CC(=O)N[C@H]3CCN(Cc4ccccc4)C3)O[C@H]1CO2,> 10 µM (inactive)
3,COC(=O)[C@@H]1[C@@H](CO)[C@@H]2Cn3c(ccc(C4=CCCC4)c3=O)[C@@H]2N1C(=O)Cc1cccnc1,> 10 µM (inactive)
4,CCCN1[C@@H]2c3ccc(C4=CCCCC4)c(=O)n3C[C@@H]2[C@@H](CO)[C@@H]1C(=O)NC1Cc2ccccc2C1,> 10 µM (inactive)
5,O=C(CC1CC1)N1CC(=O)N2[C@@H](CO)[C@H](c3ccc(C#Cc4cccc(F)c4)cc3)[C@@H]2C1,> 10 µM (inactive)
6,COc1ccccc1CN1[C@@H]2CN(C(=O)C3CCCCC3)c3ccccc3[C@@H]2[C@@H]1CO,> 10 µM (inactive)
7,CN1C[C@@H]2[C@H](c3ccccc31)[C@H](CO)N2Cc1ccccc1Cl,> 10 µM (inactive)
8,CCS(=O)(=O)Nc1ccc2c(c1)C(=O)N(C)[C@H]1CC[C@H](CC(=O)N[C@@H]3CCN(Cc4ccccc4)C3)O[C@H]1CO2,> 10 µM (inactive)
9,CN(C)C(=O)C[C@@H]1CC[C@H]2[C@@H](COC[C@H](O)CN2C(=O)C2CC2)O1,> 10 µM (inactive)
10,O=C(C[C@H]1CC[C@H]2[C@@H](COC[C@H](O)CN2CC2CCOCC2)O1)NCC1CCCCC1,> 10 µM (inactive)
11,CCCNC(=O)N1[C@@H](CO)[C@H](c2ccccc2)C12CN(C(=O)C1CCCCC1)C2,> 10 µM (inactive)
12,O=S(=O)(c1ccc(F)cc1)N1C[C@H]2[C@@H](c3ccccc31)[C@@H](CO)N2Cc1ccccc1Cl,> 10 µM (inactive)
13,COCC(=O)N1[C@H](CO)[C@H](c2ccccc2-c2ccc(C)cc2)[C@@H]1C#N,> 10 µM (inactive)
14,COc1ccc2c3c([nH]c2c1)[C@@H](CO)N(C(=O)NC(C)C)CC31CCN(C(=O)c2cnccn2)CC1,> 10 µM (inactive)
15,O=C([C@H]1[C@H](CO)[C@H]2Cn3c(ccc(-c4ccccc4F)c3=O)[C@@H]1N2C(=O)C1CCC1)N1CCCCC1,> 10 µM (inactive)
16,C/C=C/c1ccc([C@H]2[C@@H](CO)N(CC3CCCC3)C23CN(C(=O)CC)C3)cc1,> 10 µM (inactive)
17,O=C(C[C@H]1CC[C@H]2[C@@H](COC[C@H](O)CN2C(=O)c2cccnc2)O1)NCc1ccccc1,> 10 µM (inactive)
